Values of other authors in patent US8273721B2, “Combination treatment for bladder cancer” (Endo Pharmaceuticals Solutions Inc., priority 2008, dated 2012).

Row | Compound | solubility in water (water) | solubility in organic solvents (in words) (methylene chloride, ethanol, methanol and acetone) | solubility in water (in words) (water)
1 | O=C(OC1CC2CCC(C1)[N+]21CCCC1)C(O)(c1ccccc1)c1ccccc1.[Cl-] (stereo not drawn) [trospium chloride, spiro[8-azoniabicyclo[3,2,1]octane-8,1′pyrrolidinium]-3-[(hydroxydiphenyl-acetyl)-oxy]chloride(1α, 3β, 5α)(9Cl)] | approximately 1 g/2 mL |  | 
2 | (2S-cis)-2-[1,2,3,4,6,11-hexahydro-2,5,12-trihydroxy-7-methoxy-6,11-dioxo-4-[[2,3,6-trideoxy-3-[(trifluoroacetyl)amino]-α-L-lyxo-hexopyranosyl]oxyl]-2-naphthacenyl]-2-oxoethyl pentanoate [Valrubicin] |  | soluble | relatively insoluble
